The record followed here is PMC7918798, “Coumarins from Seseli devenyense Simonk.: Isolation by Liquid–Liquid Chromatography and Potential Anxiolytic Activity Using an In Vivo Zebrafish Larvae Model” (International Journal of Molecular Sciences, 2021).

For data set [1], the system named is 5-dpf zebrafish larvae. Briefly: Zebrafish larvae 40 min continuous illumination: spontaneous locomotor activity and thigmotaxis (Phase 1). The format is in vivo, Danio rerio. The settings on record: for spontaneous locomotor activity (average distance moved): 40 min continuous illumination. On the procedure:
(§1) The research protocol was adopted after Schnorr et al. (2012). The anxiolytic activity was evaluated in 24-well plates. The inner and outer zones of the well were delineated according to Schnorr et al. (2012). […] It could be also described as decreasing thigmotaxis. 1% DMSO in E3 solution was used as the negative control, 10 μM diazepam was used as the positive control. 32 larvae were used for each concentration.
(§2) The experimental procedure was divided into three stages: • (a) Preincubation: larvae were pre-incubated in a 1500 μL solution of tested compounds in individual wells of a 24-well plate at 28.5 °C, in dark, for 30 min. • (b) Acclimatization (min 0–10): plates were placed in an automated video recording bench station (ViewPoint, Lyon, France). Larvae were allowed to acclimatize to the test apparatus for 10 min. During this period, lights were kept on. • (c) Visual motor challenge (min 11–95): this stage experiment was divided into two phases: Phase 1—continuous illumination: larvae were subjected to continuous light for 40 min, with the purpose to determine the spontaneous locomotor activity and thigmotaxis behavior (before applying the factor causing the anxiety). Phase 2—light/dark transition: larvae were subjected to three cycles, each involving the 10-min lighting phase (continuous light) and the 5-min dark phase (anxiogenic factor).

Data set [2] has as its system 5-dpf zebrafish larvae. Briefly: Zebrafish larvae light/dark transition challenge: locomotor activity and thigmotaxis (anxiolytic activity assay, Phase 2). The format is in vivo, Danio rerio. The settings on record: for distance moved by the larvae in the central arena / time spent in the central area: dark phase vs light phase, concentration not stated. As to the method:
as §1, §2

Data set [3] can be described thus: Shake-flask partition coefficient in HEMWat biphasic solvent systems. The data set is classed as physicochemical. On the procedure:
The screening for suitable biphasic solvent systems to isolate the target coumarins from Seseli devenyense methanolic fruit extract (SDMFE) was performed by shake-flask experiments. The partition coefficient (Pi), defined as the ratio of the concentration of a solute in the stationary phase to its concentration in the mobile phase, was used as the screening parameter. The experimental protocol was previously descried by Widelski et al. (2018). Briefly, 1 mg of crude extract was dissolved in 4 mL of biphasic solvent systems obtained by mixing various volumes of hexane, ethyl acetate, methanol and water (HEMWat). After vigorous shaking, the flasks were left until the complete separation of the layers. Then, equal volumes of the upper and lower phase (0.5 mL) were taken, evaporated to dryness, dissolved again in methanol (1.0 mL) and analyzed by HPLC-DAD analysis, as descried below.
The preliminary analysis of the SDMFE, determination of the partition coefficient values and purity of collected fractions were assessed by HPLC-DAD. The HPLC-DAD analyses were performed on a Shimadzu HPLC (Shimadzu, Tokyo, Japan) equipped with automatic degasser (DGU-20A3R), quaternary pump (LC-20AD), auto-sampler (SIL-20AHT) and diode array detector (SPD-M20A). The separations were carried out on an Agilent Zorbax Eclipse XDB-C18 (Agilent, Santa Clara, CA, USA) (250 mm × 4.6 mm, 5 μm) column with a mobile phase consisting of water (solvent A) and methanol (solvent B). The following gradient was applied: 0 min: 50% B; 5 min: 60% B; 25 min: 80% B; 30–35 min: 100% B. The flow-rate was 1 mL/min; the column temperature was set at 25 °C. The injection volume of sample was 10 μL and detection was carried out at 320 nm.

The mark [4] stands for this setting: dark phase vs DMSO-treated group in dark phase, 1.5 μM.
The mark [5] stands for this setting: dark phase vs DMSO-treated group in dark phase, 9 μM.
Setting [6] is: dark phase vs DMSO-treated group in dark phase, 12.5 μM.
The mark [7] stands for this setting: dark phase vs DMSO-treated group in dark phase, 25 μM.
Where [8] appears, read: dark phase vs light phase within same group, 1.5 μM.
The mark [9] stands for this setting: dark phase vs light phase within same group, 3 μM.
The mark [10] stands for this setting: dark phase vs light phase within same group, 6 μM.
Setting [11] is: dark phase vs light phase within same group, 9 μM.
The mark [12] stands for this setting: dark phase vs light phase within same group, 12.5 μM.
The mark [13] stands for this setting: dark phase vs light phase within same group, 25 μM.
[14] abbreviates: solvent system I, hexane/ethyl acetate/methanol/water 2/5/2/5 (v/v/v/v).
The mark [15] stands for this setting: dark phase vs DMSO-treated group in dark phase, 50 μM.
[16] abbreviates: dark phase vs light phase within same group, 50 μM.
[17] abbreviates: light phase vs DMSO-treated group in light phase, 12.5 μM.
The mark [18] stands for this setting: light phase vs DMSO-treated group in light phase, 25 μM.
Where [19] appears, read: light phase vs DMSO-treated group in light phase, 50 μM.
Where [20] appears, read: dark phase vs DMSO-treated group in dark phase, 6 μM.
Setting [21] is: dark phase vs DMSO-treated group in dark phase, 15 μM.
Setting [22] is: dark phase vs light phase within same group, 15 μM.
The mark [23] stands for this setting: 40 min continuous illumination vs DMSO-treated control group, diazepam 10 µM.
Where [24] appears, read: dark phase vs DMSO-treated group in dark phase, diazepam 10 μM.
[25] abbreviates: dark phase vs light phase within same group, diazepam 10 μM.
[26] abbreviates: light phase vs DMSO-treated group in light phase, diazepam 10 μM.

“Also recorded” adds a separate entry of the source.

On to `CC1(C)Oc2ccc3ccc(=O)oc3c2[C@H](O)[C@@H]1O` [cis-khellactone], for which, in the data set on 5-dpf zebrafish larvae [1] (all tested concentrations (1.5, 3, 6, 9, 12.5, 25 µM)), the “spontaneous locomotor activity (average distance moved)” value (“spontaneous locomotor activity” below) is reported as “has not influenced”. In the data set with 5-dpf zebrafish larvae [1] (40 min continuous light, one-way ANOVA between tested groups, 1.5, 3, 6, 9, 12.5, 25 µM), the “time spent in the central arena” value is on record as “not showed”. In addition, the “percentage of time spent in central area” value with 5-dpf zebrafish larvae [2] (setting [4]) was “significant increases”; in the data set with 5-dpf zebrafish larvae [2] (dark phase vs DMSO-treated group in dark phase, 3 μM), “significant increases”; with 5-dpf zebrafish larvae [2] (setting [5]), “significant increases”; in the data set with 5-dpf zebrafish larvae [2] (setting [6]), “significant increases”; with 5-dpf zebrafish larvae [2] (setting [7]), “significant increases”; with 5-dpf zebrafish larvae [2] (setting [8]), “increase”. The “percentage of time spent in central area” value in the data set with 5-dpf zebrafish larvae [2] (setting [9]) is reported as “increase”; with 5-dpf zebrafish larvae [2] (setting [12]), “increase”; in the data set on 5-dpf zebrafish larvae [2] (setting [13]) it was “increase”; in the data set with 5-dpf zebrafish larvae [2] (light phase vs DMSO-treated group in light phase, 6 μM) it was “significant increase”; with 5-dpf zebrafish larvae [2] (light phase vs DMSO-treated group in light phase, 9 μM), “significant increase”. Also, the “percentage of distance moved in central area” value in the data set with 5-dpf zebrafish larvae [2] (dark phase vs DMSO-treated group in dark phase, all tested concentrations (1.5, 3, 6, 9, 12.5, 25 μM)) was “not observed”; with 5-dpf zebrafish larvae [2] (setting [8]) it was “increase”; with 5-dpf zebrafish larvae [2] (setting [10]) it was “increase”; in the data set on 5-dpf zebrafish larvae [2] (setting [11]) it was “increase”; with 5-dpf zebrafish larvae [2] (setting [12]), “increase”; in the data set with 5-dpf zebrafish larvae [2] (setting [13]), “increase”. The “locomotor activity (average distance moved per 1-min time bin)” value in the data set with 5-dpf zebrafish larvae [2] (setting [8]), in the data set with 5-dpf zebrafish larvae [2] (setting [9]), in the data set on 5-dpf zebrafish larvae [2] (setting [10]), in the data set with 5-dpf zebrafish larvae [2] (setting [11]), in the data set on 5-dpf zebrafish larvae [2] (setting [12]) and in the data set with 5-dpf zebrafish larvae [2] (setting [13]) was “increase” throughout. Also, in the data set on 5-dpf zebrafish larvae [2] (light phase vs DMSO-treated group in light phase, all tested concentrations (1.5, 3, 6, 9, 12.5, 25 μM)), the “locomotor activity (average distance moved per 1-min time bin)” value is “not noticed”. In addition, in the data set with 5-dpf zebrafish larvae [2] (zebrafish larvae model), the “anxiolytic activity (authors' overall statement)” value is on record as “weakest activity”. For the same compound, in data set [3] (setting [14]), the “Partition Coefficients (Pi)” value amounted to 2.50.
As to `C/C=C(/C)C(=O)O[C@H]1c2c(ccc3ccc(=O)oc23)OC(C)(C)[C@H]1O` [d-laserpitin], the “spontaneous locomotor activity” value in the data set with 5-dpf zebrafish larvae [1] (all concentrations (12.5, 25, 50 µM)) is given as “has not influe nced”. The “locomotor activity (average distance moved per 1-min time bin)” value is listed as “significant decreases” in the data set on 5-dpf zebrafish larvae [2] (setting [6]); “significant decreases” with 5-dpf zebrafish larvae [2] (setting [7]); “significant decreases” with 5-dpf zebrafish larvae [2] (setting [15]); “increase” with 5-dpf zebrafish larvae [2] (setting [13]); “increase” in the data set with 5-dpf zebrafish larvae [2] (setting [16]). The “percentage of distance moved in central area” value is listed as “significant increases” in the data set on 5-dpf zebrafish larvae [2] (setting [6]); “significant increases” in the data set on 5-dpf zebrafish larvae [2] (setting [7]); “significant increases” with 5-dpf zebrafish larvae [2] (setting [15]); “increase” with 5-dpf zebrafish larvae [2] (setting [12]); “increase” in the data set with 5-dpf zebrafish larvae [2] (setting [13]); “increase” with 5-dpf zebrafish larvae [2] (setting [16]). The “percentage of distance moved in central area” value is “decreased” with 5-dpf zebrafish larvae [2] (setting [17]), “significant increase” in the data set on 5-dpf zebrafish larvae [2] (setting [18]) and “significant increase” in the data set with 5-dpf zebrafish larvae [2] (setting [19]). Besides, the “percentage of time spent in central area” value with 5-dpf zebrafish larvae [2] (setting [6]) is “significant increases”; with 5-dpf zebrafish larvae [2] (setting [7]), “significant increases”; with 5-dpf zebrafish larvae [2] (setting [15]) it was “significant increases”; in the data set with 5-dpf zebrafish larvae [2] (setting [13]), “increase”; in the data set with 5-dpf zebrafish larvae [2] (setting [16]), “increase”; with 5-dpf zebrafish larvae [2] (setting [17]) it was “significant increase”. The “percentage of time spent in central area” value in the data set on 5-dpf zebrafish larvae [2] (setting [18]) and in the data set with 5-dpf zebrafish larvae [2] (setting [19]) was “significant increase” throughout. Moreover, the “distance moved by the larvae in the central arena” value (“distance moved by the larvae” below) in the data set with 5-dpf zebrafish larvae [2] was “significantly increased”. In addition, the “time spent in the central area” value with 5-dpf zebrafish larvae [2] is reported as “significantly increased”. In addition, the “Partition Coefficients (Pi)” value in data set [3] (solvent system II, hexane/ethyl acetate/methanol/water 6/5/6/5 (v/v/v/v)) worked out at 0.84.
Take `CC(C)(O)C(O)Cc1c(O)ccc2ccc(=O)oc12` (stereo not drawn) [devenyol]: in the data set on 5-dpf zebrafish larvae [1] (all concentrations (1.5, 3, 6, 9, 15 µM)), the “spontaneous locomotor activity” value was “has not influenced”. Moreover, the “anxiolytic activity (authors' overall statement)” value in the data set on 5-dpf zebrafish larvae [2] (concentrations of 1.5, 6, 9 and 15 μM) is reported as “active”. For the same compound, the “locomotor activity (average distance moved per 1-min time bin)” value in the data set on 5-dpf zebrafish larvae [2] (setting [4]) was “decreases”; with 5-dpf zebrafish larvae [2] (setting [8]) it was “significant increases”; in the data set with 5-dpf zebrafish larvae [2] (setting [9]), “significant increases”; in the data set with 5-dpf zebrafish larvae [2] (setting [10]), “significant increases”; with 5-dpf zebrafish larvae [2] (setting [11]), “significant increases”; in the data set with 5-dpf zebrafish larvae [2] (setting [22]), “significant increases”. Moreover, the “percentage of distance moved in central area” value in the data set on 5-dpf zebrafish larvae [2] (setting [4]) is on record as “significant increases”; with 5-dpf zebrafish larvae [2] (setting [20]) it was “significant increases”; in the data set with 5-dpf zebrafish larvae [2] (setting [5]), “significant increases”; in the data set with 5-dpf zebrafish larvae [2] (setting [21]), “significant increases”; in the data set with 5-dpf zebrafish larvae [2] (setting [8]) it was “increase”; in the data set with 5-dpf zebrafish larvae [2] (setting [9]), “increase”. Besides, the “percentage of distance moved in central area” value in the data set with 5-dpf zebrafish larvae [2] (setting [10]), in the data set with 5-dpf zebrafish larvae [2] (setting [11]) and in the data set with 5-dpf zebrafish larvae [2] (setting [22]) was “increase” each time. Besides, the “percentage of time spent in central area” value in the data set with 5-dpf zebrafish larvae [2] (setting [4]) is “significant increase”; with 5-dpf zebrafish larvae [2] (setting [20]) it was “significant increase”; with 5-dpf zebrafish larvae [2] (setting [5]), “significant increase”; with 5-dpf zebrafish larvae [2] (setting [21]), “significant increase”; in the data set on 5-dpf zebrafish larvae [2] (dark phase vs light phase within same group, all concentrations (1.5, 3, 6, 9, 15 μM)), “increase”. The “distance moved by the larvae” value in the data set on 5-dpf zebrafish larvae [2] was “significantly increased”. The “time spent in the central area” value in the data set with 5-dpf zebrafish larvae [2] was “significantly increased”. Besides, in data set [3] (setting [14]), the “Partition Coefficients (Pi)” value came out at 0.80.
On to `CN1C(=O)CN=C(c2ccccc2)c2cc(Cl)ccc21` [diazepam, reference compound], for which, in the data set on 5-dpf zebrafish larvae [1] (setting [23]), the “percentage of distance moved in the central arena” value is listed as “increased” and the “percentage of time spent in the central arena” value is reported as “increase”. In the data set on 5-dpf zebrafish larvae [2] (setting [24]), the “locomotor activity (average distance moved per 1-min time bin)” value is reported as “significant decreases; also recorded: decrease”, the “percentage of distance moved in central area” value is listed as “significant increases” and the “percentage of time spent in central area” value is on record as “significant increases”. For the same compound, in the data set on 5-dpf zebrafish larvae [2] (setting [25]), the “percentage of distance moved in central area” value is listed as “increase” and the “percentage of time spent in central area” value is reported as “increase”. Also, in the data set with 5-dpf zebrafish larvae [2], the “distance moved by the larvae” value was “significantly increased” and the “time spent in the central area” value is reported as “significantly increased”. Further, in the data set on 5-dpf zebrafish larvae [2] (setting [26]), the “percentage of distance moved in central area” value was “significant increase” and the “percentage of time spent in central area” value is on record as “significant increase”.
